How the values were obtained:
[1] = test system: HEK293T (human embryonic kidney cell); assay: MTT cytotoxicity assay, HEK293T; assay type: cell-based; conditions: 72 hr, MTT; read-out: IC50 HEK293T
[2] = ANTS/DPX liposome leakage assay, 3POPC/1POPG vesicles; assay type: biochemical; conditions: 0.5 mM vesicles
Method in brief: (§1)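 0.5 mM extruded 100 nm LUVs loaded with 5 mM ANTS/12.5 mM DPX were incubated 3 h with peptide at 0–20 μM in PBS pH 7.4 or HCl-adjusted PBS pH 4.8. Fluorescence read at ex 350/em 510 nm; 10% Triton set maximum leakage; values expressed as lipid per peptide.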

[3] = test system: U2OS (human bone osteosarcoma); assay: MTT cytotoxicity assay, U2OS; assay type: cell-based; conditions: 72 hr
[4] = test system: HMLER-shEcad (human breast cancer stem cell); assay: MTT cytotoxicity assay, HMLER-shEcad; assay type: cell-based; conditions: 72 hr, MTT; read-out: IC50 HMLER-shEcad
[5] = test system: HMLER (human breast cancer bulk cell); assay: MTT cytotoxicity assay, HMLER; assay type: cell-based; conditions: 72 hr, MTT; read-out: IC50 HMLER
[6] = test system: MCF-10A (human breast epithelial cell); assay: cells; conditions: read-out: IC50 MCF-10A; 72 hr, MTT
[7] = Tryptophan fluorescent binding assay, 3POPC/1POPG vesicles; conditions: 50 μM peptide, PBS pH 7.4
Method in brief: (§2)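 Tryptophan fluorescence was measured with peptide fixed at 50 μM and POPC or 3POPC/1POPG LUVs (100 nm extruded) titrated 0–5000 μM in PBS pH 7.4, read after 60 min. Excitation was 280 nm and emission 300–450 nm. The value is the lipid concentration giving 50% peptide binding, expressed as lipid per peptide.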

[8] = ANTS/DPX liposome leakage assay, POPC vesicles; assay type: biochemical; conditions: 0.5 mM vesicles
Method in brief: as §1

[9] = Tryptophan fluorescent binding assay, POPC vesicles; conditions: 50 μM peptide, PBS pH 7.4
Method in brief: as §2

Sequence | IC50 [1] [µM] | Peptide Concentration-induced 50% ANTS/DPX leakage at pH 4.8 (L/P) 3POPC/1POPG Vesicle [2] [L/P] | Peptide Concentration-induced 50% ANTS/DPX leakage at pH 7.4 (L/P) 3POPC/1POPG Vesicle [2] [L/P] | IC50 [3] [µM] | IC50 [4] [µM] | IC50 [5] [µM] | IC50 [6] [µM] | Lipid Concentration-induced 50% Peptide Binding (L/P) 3POPC/1POPG Vesicle [7] [L/P] | Peptide Concentration-induced 50% ANTS/DPX leakage at pH 4.8 (L/P) POPC Vesicle [8] [L/P] | Peptide Concentration-induced 50% ANTS/DPX leakage at pH 7.4 (L/P) POPC Vesicle [8] [L/P] | Lipid Concentration-induced 50% Peptide Binding (L/P) POPC Vesicle [9] [L/P]
GLLELLKLLLHAAG [EKH] | 6.65 ± 1.34 | 88 | 365 | 23.8 ± 0.81 | 2.18 ± 0.31 | 2.75 ± 0.07 | 7.9 ± 0.42 | 0.19 | 55 | 608 | 0.75
GLLELLKLLLKAAG [EKK] | 3.35 ± 0.49 | 219 | 235 | 12.2 ± 1.84 | 1.19 ± 0.4 | 1.72 ± 0.21 | 1.7 ± 0.11 | 0.63 | 60 | 1095 | 1.50
GLLHLLELLLEAAG [HEE] | 10.2 ± 0.2 | 122 | 792 | 47.5 ± 11 | 4.95 ± 0.49 | 6.5 ± 0.71 | 58 ± 41 | 0.50 | 100 | 876 | 0.58
GLLHLLHLLLKAAG [HHK] | 5.25 ± 1.48 | 111 | 160 | 12.7 ± 1.91 | 1.75 ± 0.21 | 3.15 ± 0.07 | 5.6 ± 0.14 | 0.20 | 149 | 1133 | 0.68
GLLHLLKLLLEAAG [HKE] | 5.15 ± 0.64 | 94 | 365 | 16 ± 0.78 | 1.9 ± 0.42 | 2.7 ± 0.28 | 7.6 ± 0.42 | 0.25 | 173 | 692 | 0.75
GLLHLLKLLLHAAG [HKH] | 5.7 ± 0.99 | 47 | 274 | 18.9 ± 1.24 | 3.1 ± 0.57 | 3.45 ± 0.21 | 6.1 | 0.38 | 193 | 1077 | 0.18
GLLHLLKLLLKAAG [HKK] | 9.5 ± 0.99 | 106 | 90 | 12.23 ± 0.11 | 2.6 ± 0.42 | 3.4 ± 0.71 | 2.18 ± 0.39 | 0.14 | 106 | 657 | 0.18
GLLKLLELLLHAAG [KEH] | 5.65 ± 0.07 | 68 | 286 | 49.2 ± 5.3 | 2.35 ± 0.07 | 3.3 ± 0.42 | 20 | 0.50 | 188 | 995 | 1.00
GLLKLLELLLKAAG [KEK] | 3.2 ± 0.14 | 126 | 438 | 8.15 ± 0.49 | 1.35 ± 0.07 | 1.6 ± 0.14 | 1.55 ± 0.07 | 0.50 | 110 | 1173 | 0.47
GLLKLLHLLLEAAG [KHE] | 26 ± 2.83 | 156 | 188 | 53 ± 2.83 | 2.92 ± 0.17 | 3.7 ± 0.14 | 20.9 ± 5.87 | 0.71 | 183 | 981 | 0.88
GLLKLLHLLLHAAG [KHH] | 7.75 ± 0.78 | 48 | 329 | 39.8 ± 5.3 | 4.45 ± 0.49 | 5.2 ± 0.71 | 10.3 ± 0.49 | 0.94 | 227 | 1153 | 3.50
